“Also recorded” adds a separate entry of the source. Where two headings read alike, the source gives them in different places.
What was measured:
MCF7 cell line = experiment: Cytotoxicity by MTT assay, MCF7 cell line; format: cell-based, human; settings: for IC50: MCF7 cell line, purified compounds, incubation of 2 days, read-out: IC 50 of the Compounds Purified from Independent Synthesis, MCF7; for biological activity (cytotoxicity) in crude library assay: crude coupling products, MCF7 (FIGS. 4a-c; cell line not always given)
Protocol: (§1) The cell lines were used in the present invention, including A549 (Human type II epithelial cell line, from American Type Culture Collection, Manassas, Va.) and MCF7 (solid human estrogen receptor positive breast carcinoma). A 10 μl coupling product solution was added into the well of microtiterplate planted with 100 μl of above mentioned cell lines in a concentration of 30000 cells/mL. Furthermore, the coupling product in each well was diluted before transferring to the plate. Thus the appropriate working concentration could be determined since the cellular survival ratio of most compounds acting as negative control is greater than 80%. The method was illustrated in FIG. 3. After an incubation of 2 days, the supernatants were washed, followed by adding MTT reagents. After 4 hours, absorbance at 580 nm was recorded according to the usual protocol.

A549 cell line = experiment: Cytotoxicity by MTT assay, A549 cell line; format: cell-based, Human; settings: for IC50: A549 cell line, purified compounds, incubation of 2 days, read-out: IC 50 of the Compounds Purified from Independent Synthesis, A549
Protocol: as §1

Which results are given for `O=C(NCC1OC(n2ccc(=O)[nH]c2=O)C(O)C1O)c1ccccc1` (centres unmarked) [U1]?
IC50 (MCF7 cell line): > 100 µM; IC50 (A549 cell line): > 100 µM

How did the IC50 (MCF7 cell line) turn out when `CCCCNC(=O)CCC(=O)c1ccc(-c2ccccc2)cc1` [C18] was run?
Its IC50 is 87 µM.

What about the “biological activity (cytotoxicity) in crude library assay” value (from here on “biological activity (cytotoxicity)”) (MCF7 cell line) of the same compound?
The value was “exhibited biological activity; also recorded: unexpected bioactivity”.

What about the IC50 (A549 cell line) of the same compound?
Its IC50 is 100 µM.

What about the “biological activity (cytotoxicity)” value (A549 cell line; crude coupling products, A549) of the same compound?
Its value is “unexpected bioactivity”.

With `O=C(O)CCC(=O)c1ccc(-c2ccccc2)cc1` [D18, 4-([1,1′-biphenyl]-4-yl)-4-oxobutanoic acid, reference compound] as the compound, how does the IC50 (MCF7 cell line; Homo sapiens, 48 h) read?
Its IC50 is over 100 µM.

What about the IC50 (A549 cell line; Homo sapiens, 48 h) of the same compound?
The IC50 was over 100 µM.

For `O=C(CCC(=O)c1ccc(-c2ccccc2)cc1)NCC1OC(n2ccc(=O)[nH]c2=O)C(O)C1O` (centres unmarked) [U18], which IC50 (MCF7 cell line) is on record?
Its IC50 is over 100 µM.

And the IC50 (A549 cell line)?
The IC50 was over 100 µM.

What does the source list for `CCCCCCCCCCCC(=O)NC[C@H]1O[C@@H](n2ccc(=O)[nH]c2=O)[C@H](O)[C@@H]1O` [U27]?
IC50 (MCF7 cell line): ~100 µM; biological activity (cytotoxicity) in crude library assay (MCF7 cell line): exhibited biological activity; also recorded: subtle cytotoxicity; IC50 (A549 cell line): > 100 µM

Which IC50 (MCF7 cell line) does the source give for `CCCCNC(=O)c1cccc(C(=O)c2ccc(F)cc2)c1` [C16] here?
The IC50 was over 100 µM.

What about the IC50 (A549 cell line) of the same compound?
The IC50 was over 100 µM.

`C=C(CC)C(=O)c1ccc(OCC(=O)NC[C@H]2O[C@@H](n3ccc(=O)[nH]c3=O)C[C@@H]2O)c(Cl)c1Cl` [A15] was tested. Which IC50 (MCF7 cell line) did it give?
The IC50 was over 100 µM.

And the “biological activity (cytotoxicity)” value (MCF7 cell line)?
Its value is “exhibited biological activity”.

What about the IC50 (A549 cell line) of the same compound?
Its IC50 is over 100 µM.

How did the IC50 (MCF7 cell line) turn out when `O=C(NCC1OC(n2ccc(=O)[nH]c2=O)CC1O)c1cccc(C(=O)c2ccc(F)cc2)c1` (centres unmarked) [A16] was run?
The IC50 was over 100 µM.

What about the IC50 (A549 cell line) of the same compound?
The IC50 was over 100 µM.

Which IC50 (MCF7 cell line; Homo sapiens, 48 h) does the source give for `C=C(CC)C(=O)c1ccc(OCC(=O)O)c(Cl)c1Cl` [D15, 2-(2,3-dichloro-4-(2-methylenebutanoyl)phenoxy)acetic acid, reference compound] here?
The IC50 was 26 ± 2 µM.

What about the IC50 (A549 cell line; Homo sapiens, 48 h) of the same compound?
Its IC50 is 84 ± 16 µM.

With `C=C(CC)C(=O)c1ccc(OCC(=O)NCCCC)c(Cl)c1Cl` [C15] as the compound, how does the IC50 (MCF7 cell line) read?
The IC50 was 8 ± 5 µM.

What about the “biological activity (cytotoxicity)” value (MCF7 cell line) of the same compound?
Its value is “exhibited biological activity”.

What about the IC50 (A549 cell line) of the same compound?
The IC50 was 18 µM.

`N.N.[Cl][Pt][Cl]` [Cisplatin, reference compound] was tested. Which IC50 (MCF7 cell line) did it give?
The IC50 was 25 ± 6 µM.

What about the IC50 (A549 cell line) of the same compound?
Its IC50 is 8 ± 3 µM.

Which results are given for `O=C(O)c1cccc(C(=O)c2ccc(F)cc2)c1` [D16, 3-(4-fluorobenzoyl)benzoic acid, reference compound]?
IC50 (MCF7 cell line; Homo sapiens, 48 h): > 100 µM; IC50 (A549 cell line; Homo sapiens, 48 h): > 100 µM

From US20110245088A1, “AMIDE-BASED SOLUTION-PHASE DERIVED LIBRARY AND METHOD FOR SCREENING THEREOF” (NATIONAL TSING HUA UNIVERSITY, priority 2010, published 2011)
